Key:
MMTV-PyVT mammary tumor = experiment: MMTV-PyVT spontaneous mammary tumor mouse model; format: in vivo
From the text: MMTV-PvVT (FVB/N-Tg) transgenic mice develop multifocal mammary tumor (from hyperplasia to metastatic) with a high incidence of metastasis (Mice were obtained from the NCI repository). This mouse model has been widely used for the correlation studies of human cancer (Guy et al., Moll. Cell. Biol. 12: 954-961, 1992). In addition, this onco-mouse model has been used to evaluate the effectiveness of potential drug therapies. Generally, due to aggressiveness of tumor growth and spread in this mouse-model, only a combination of chemo-drugs is effective in tumor growth inhibition. MMTV-PyVT mice were maintained until mammary tumor size reached to 6 mm, and then piperlongumine (2.4 mg/kg) or vehicle (DMSO) was given daily by i.p. for 13 days. Tumor size was measured every 4 days (See FIGS. 31 and 32).
We compared the anti-tumor activity of piperlongumine (SP2007) with taxol, a well known chemo drug, in the MMTV-PyVT tumor mouse model as described above (8 mice per group). When tumor sizes grew to ˜5-6 mm in diameter, SP2007 (2.4 mg/kg/day) or Taxol (Paclitaxel, 10 mg/kg/day) was administered intraperitoneally (I.P.) daily for two weeks. After two weeks treatment, mice were sacrificed, and mammary tumors excised and the tumor sizes measured. […] The size of the grossly dissected tumors was measured using the formula: mean diameter=(A+B)/2.

CDIP [1] = experiment: Western blot of CDIP expression in U2OS cells containing wt-p53; format: cell-based, human; settings: 5 μM and 10 μM
Procedure: Western blot analyses of CDIP expression in human cancer cells containing wt-p53 treated with piperlongumine (SP2007) (5 μM and 10 μM) is shown in FIG. 38. Beta-actin expression was used as a loading control.

CDIP [2] = experiment: CDIP expression in HCT116 cells; format: cell-based, human; settings: 5 μM and 10 μM
Procedure: (§1) U2OS cells and EJ cells were exposed to piperlongumine (10 μM) and aliquots of the cells were taken at 6 and 12 hours and lysed to determine the level of Twist expression. […] HCT116 cells (p53-wt cells) were exposed to piperlongumine and aliquots of the cells were taken at 6 and 12 hours and lysed to determine the level of CDIP expression. […] U2OS cells (p53-wt cells) and EJ cells (non-functional p53) were exposed to various concentrations of piperlongumine (piper) and aliquots of the cells were lysed to determine the level of survival protein expression.

[3] = system: patient-derived osteocarcoma samples; experiment: Histoculture Drug Response Assay (HDRA), osteosarcoma; format: cell-based, human
From the text: Piperlongumine (SP2007) was compared to a variety of known anti-cancer agents in a Histoculture Drug Response Assay (HDRA). HDRA is an assay that provides a reliable approach to determine the profile of in vivo chemo-sensitivity in cancer patients. The assay allows for a three-dimensional culture, the testing of patient tumor sensitivity, the evaluation of treatment option for individual patients with solid tumor types and a high correlation to clinical drug sensitivity (Flowers J L et al., Cancer Chemother. Pharmacol. 2003 September 52 (3): 253-261). The assays were performed by Anti-cancer Inc., (San Diego, Calif.). An average of twenty samples was tested for each tumor type.

Twist = Twist expression in U2OS and EJ cells; format: cell-based, human; settings: 10 μM, 6 and 12 hours
Procedure: as §1

[4] = system: normal human breast epithelial cells; experiment: DNA damage markers in normal human breast epithelial cells; format: cell-based; settings: SP2007 10 μM or 20 μM
From the text: The primary breast epithelial cells obtained from patients undergoing reconstructive plastic surgery.

miRNA-10b = experiment: miRNA microarray analysis in U2OS and EJ cells; format: cell-based, human; set-up: dose or concentration left out as unconfirmed; settings: 0, 6 and 24 hrs
Procedure: U2OS cells and EJ cells were treated with piperlongumine ([…]) and total RNA was extracted after 0, 6 and 24 hrs using miRNeasy Mini Kit (Qiagen, Germantown, Md.) according to the manufacturer's instructions. The miRNA microarray analysis was done by LC Sciences (Houston, Tex.). Total RNA (10 μg) was size fractionated (<200 nucleotides) by using a mirVana kit (Ambion, Austin, Tex.) and labeled with Cy3 or Cy5 fluorescent dyes. Dye switching was done to eliminate the dye bias. Pairs of labeled samples were hybridized to dual-channel microarrays. Microarray assays were done on a μParaFlo microfluidics chip with each of the detection probes containing a nucleotide sequence of coding segment complementary to a specific miRNA sequence and a long non-nucleotide molecule spacer that extended the detection probe away from the substrate. miRNA detection signal threshold was defined as twice the maximum background signal. The maximum signal level of background probes was 180. Normalization was done using a cyclic LOWESS (locally weighted regression) method to remove the system-related variations. Data adjustments included data filtering, log2 transformation, and gene centering and normalization (Analysis performed at LCScience). The t-test analysis was conducted between treated and non-treated and U2OS and EJ samples, and miRNA with P values<0.05 were selected for cluster analysis. […]

[5] = system: mouse B16-F10 melanoma cells; experiment: B16-F10 mouse melanoma in B6 wild type mice; format: in vivo; settings: 28 ug i.p. every 48 hours for 12 days (total 1.2 mg/kg); compared to DMSO
Procedure: We tested the effectiveness of piperlongumine in wild type mice using mouse B16-F10 melanoma cells. A total 2×10^6 cells were implanted subcutaneously on opposite site flanks in each of 12 B6 wild type mice in each group. When tumor masses grew to ˜5-10 mm in diameter, piperlongumine was administered intraperitoneally (28 ug per each intraperitoneal administration, total 1.2 mg/kg) every 48 hours for 12 days (6 times total).

[6] = system: EJ Human Bladder Carcinoma Cells; experiment: Angiogenesis in EJ bladder carcinoma tumor bearing nude mice; format: in vivo, mouse; settings: 1.5 mg/kg i.p. every two days for 2.5 weeks
Procedure: EJ Human Bladder Carcinoma Cells (10^6 Cells) were Subcutaneously Transplanted into the back of the skin of immunodeficient nude mice (total 16 mice). After 2 weeks (tumor sizes of approximately 8-10 mm), piperlongumine (SP2007; 1.5 mg/kg) or vehicle (10% DMSO) was injected into tumor bearing mice by i.p. every two days for 2.5 weeks. The effect of piperlongumine was evaluated by opening the tumor site.

p53 = experiment: Western blot of p53 and p53 target expression in human cancer cells; format: cell-based
From the text: Thus, piperlongumine is a p53 activator as well as an activator for proapoptotic targets.

[7] = 2.4 mg/kg daily i.p. for 13 days

SMILES: COc1cc(/C=C/C(=O)N2CCC=CC2=O)cc(OC)c1OC [piperlongumine, N-(3,4,5,-trimethoxycinnamoyl)-Δ^3-piperidine-2-one]
- multiple tumor growth in spontaneous tumor model (MMTV-PyVT mammary tumor; [7]): inhibits multiple tumor growth
- tumor growth in spontaneous mouse model of breast cancer (MMTV-PyVT mammary tumor; [7]): inhibits tumor growth
- anti-tumor effect (mammary tumor size) (MMTV-PyVT mammary tumor; 2.4 mg/kg/day i.p. daily for two weeks, compared to DMSO): Significant anti-tumor effects
- health of mice during treatment (MMTV-PyVT mammary tumor; SP2007 2.4 mg/kg/day i.p. for two weeks): remained healthy throughout the treatment time
- secondary tumors (MMTV-PyVT mammary tumor; SP2007 2.4 mg/kg/day or Taxol 10 mg/kg/day i.p. for two weeks): No secondary tumors were observed
- CDIP expression (CDIP [1]): induces CDIP
- CDIP expression (CDIP [2]): induces the expression of CDIP
- growth of patient-derived tumor samples [3]: inhibits growth
- Twist expression (Twist): inhibits the expression of Twist
- phosphorylated gamma-H2AX, p53 and p21 [4]: does not affect
- miRNA-10b (miRNA-10b): changes the induction of miRNA-10b
- anti-tumor effect [5]: significant anti-tumor effects
- blood-vessel formation at the tumor sites [6]: did not show considerable blood-vessel formation
- expression of angiogenic marker VEGF (immunohistochemistry) ([6]; compared to vehicle): significantly reduced
- Puma expression (p53; human cancer cells): significantly induced
- p53 expression (Western blot) (p53; relatively low concentrations, U2OS and HCT116 human cancer cells): significantly induced

— patent US20090312373A1, “METHODS FOR THE TREATMENT OF CANCER USING PIPERLONGUMINE AND PIPERLONGUMINE ANALOGS” (The General Hospital Corporation, priority 2008, published 2009)
